These are literature values, as cited in patent publication US20140295417A1, “IDENTIFICATION OF ANTIBIOTIC RESISTANCE” (priority 2011, published 2014).

Read-outs that look alike come from different tables or passages of the source.

This data set relates to 23S rRNA. Conditions: cited from earlier work.

For the molecule `C[C@H]1O[C@H](O[C@H]2CC[C@H](n3ccc(NC(=O)c4ccc(NC(=O)[C@@](C)(N)CO)cc4)nc3=O)O[C@@H]2C)[C@H](O)[C@@H](O)[C@@H]1N(C)C` [Amicetin], the Phenotype entry (23S rRNA position 2438 "U to A", Halobacterium halobium) was “Amicetin resistance” and the Phenotype entry (23S rRNA position 2438 "U to C", Halobacterium halobium) was “Amicetin resistance”.

For `COc1ccc(C[C@H]2NC[C@H](O)[C@H]2OC(C)=O)cc1` [Animosycin], the Phenotype result is on record as “Animosycin resistance” (23S rRNA position 2452 "C to U", Halobacterium (Hummel and Böck 1987)); “Animosycin resistance” (23S rRNA position 2452 "C to U", Tetrahymena thermophilia).

With `COc1ccc(C[C@H]2NC[C@H](O)[C@H]2OC(C)=O)cc1` [Anisomycin], the Phenotype result is, setting by setting: (23S rRNA position 2447 "G to C", Halobacterium halobium) “resistance”; (23S rRNA position 2453 "A to C", Halobacterium halobium) “Anisomycin resistance”.

In the case of `O=C(N[C@H](CO)[C@H](O)c1ccc([N+](=O)[O-])cc1)C(Cl)Cl` [Chloramphenicol], the Phenotype entry was “resistance” (23S position 2061 G to A, Rat mitochondria, Vester and Garrett 1988); “resistance” (23S position 2062 A to C, Halobacterium halobium, Mankin and Garrett 1991); “resistance” (23S rRNA position 2447 "G to A", Yeast mitochondria); “resistance” (23S rRNA position 2451 "A to U", Mouse mitochondria); “resistance” (23S rRNA position 2452 "C to A", Human mitochondria); “resistance” (23S rRNA position 2452 "C to U", Halobacterium halobium (Mankin and Garrett 1991)). Also, the Phenotype entry (23S rRNA position 2452 "C to U", Mouse mitochondria) is “resistance”; the Phenotype result (23S rRNA position 2503 "A to C", Yeast mitochondria) is reported as “resistance”; the Phenotype entry (23S rRNA position 2504 "U to C", Human mitochondria) is recorded as “resistance”; the Phenotype entry (23S rRNA position 2504 "U to C", Mouse mitochondria) is “resistance”.

As to `CC[C@H]1OC(=O)[C@H](C)[C@@H](O[C@H]2C[C@@](C)(OC)[C@@H](O)[C@H](C)O2)[C@H](C)[C@@H](O[C@@H]2O[C@H](C)C[C@H](N(C)C)[C@H]2O)[C@](C)(OC)C[C@@H](C)C(=O)[C@H](C)[C@@H](O)[C@]1(C)O` [Clarithomycin], the Phenotype result (23S position 2059 A to G, Helecobacter pylori, Versalovic 1996) is on record as “resistance”.

Regarding `CC[C@H]1OC(=O)[C@H](C)[C@@H](O[C@H]2C[C@@](C)(OC)[C@@H](O)[C@H](C)O2)[C@H](C)[C@@H](O[C@@H]2O[C@H](C)C[C@H](N(C)C)[C@H]2O)[C@](C)(OC)C[C@@H](C)C(=O)[C@H](C)[C@@H](O)[C@]1(C)O` [Clarithromycin], the Phenotype entry (23S position 2058 A to G, Helecobacter pylori, Versalovic 1996) is on record as “resistance”.

`CC[C@H]1OC(=O)[C@H](C)[C@@H](O[C@H]2C[C@@](C)(OC)[C@@H](O)[C@H](C)O2)[C@H](C)[C@@H](O[C@@H]2O[C@H](C)C[C@H](N(C)C)[C@H]2O)[C@](C)(O)C[C@@H](C)C(=O)[C@H](C)[C@@H](O)[C@]1(C)O` [Ery]: the Phenotype entry is on record as “hs” (23S position 2058 A to U, double mutation (A2058U/G2032A), E. coli, Douthwaite 1992); “hs” (23S rRNA 2032 G to A, double mutation (G2032A/A2058U), E. coli); “Slightly Eryr;” (23S rRNA 2057 G to A, double mutation (G2057A/C2661U), E. coli); “Eryr” (23S rRNA position 2611, "C to G", Chlamydomonas reinhardtii (Harris et al. 1989)); “Slightly Eryr; reduced” (23S rRNA position 2611, "C to U", double mutation (C2611U/G2057A), E. coli (Vester et al. 1995)); “Eryr” (23S rRNA position 2611, "C to U", Chlamydomonas reinhardtii (Harris et al. 1989)).

Take `CC[C@H]1OC(=O)[C@H](C)[C@@H](O[C@H]2C[C@@](C)(OC)[C@@H](O)[C@H](C)O2)[C@H](C)[C@@H](O[C@@H]2O[C@H](C)C[C@H](N(C)C)[C@H]2O)[C@](C)(O)C[C@@H](C)C(=O)[C@H](C)[C@@H](O)[C@]1(C)O` [Erythromycin]: the Phenotype result (23S position 2058 A to G, Yeast mitochondria, Sor and Fukuhara 1982) was “resistance”; the Phenotype entry (23S rRNA 1207 C to U, double mutant (C1207U/C1243U), E. coli) is recorded as “Erythromycin resistant. a Double”; the Phenotype entry (23S rRNA 1208 C to U, double mutant (C1208U/C1243U), E. coli) is recorded as “Erythromycin resistant. a Double”; the Phenotype result (23S rRNA 1211 C to U, double mutant (C1211U/C1208U), E. coli) was “Erythromycin sensitive. a Double”; the Phenotype entry (23S rRNA 1220 G to A, double mutant (G1220A/G1239A), E. coli) is listed as “Erythromycin resistant. a Double”; the Phenotype entry (23S rRNA 1221 C to U, double mutant (C1221U/C1229U), E. coli) is on record as “Erythromycin resistant. a Double”. The Phenotype entry by setting is: (23S rRNA 1221 C to U, double mutant (C1221U/C1233U), E. coli) “Erythromycin resistant. a Double”; (23S rRNA 1230, double deletion (1230/1231), E. coli) “Erythromycin sensitive. a Double”; (23S rRNA 1231, double deletion (1231/1230), E. coli) “Erythromycin sensitive. a Double”; (23S rRNA 1232 G to A, double mutant (G1232A/G1238A), E. coli) “Erythromycin sensitive. a Double”; (23S rRNA 1233 C to U, E. coli) “Erythromycin sensitive. a”; (23S rRNA 1234 U to C, E. coli) “Erythromycin sensitive. a”. Also, the Phenotype result is, setting by setting: (23S rRNA 1234 del1234/del1235, double mutant (U1234C/del1235), E. coli) “Erythromycin sensitive. a Double”; (23S rRNA 1243 C to U, double mutant (C1243U/C1207), E. coli) “Erythromycin resistant. a Double”; (23S rRNA 1243 C to U, double mutant (C1243U/C1208U), E. coli) “Erythromycin resistant. a Double”; (23S rRNA 1243 C to U, double mutant (C1243U/C1221U), E. coli) “Erythromycin resistant. a Double”.

On to `CCC[C@@H]1C[C@@H](C(=O)N[C@@H]([C@H]2O[C@H](SC)[C@H](O)[C@@H](O)[C@H]2O)[C@@H](C)O)N(C)C1` [Lincomycin], for which the Phenotype result is “resistance” (23S position 2058 A to G, Chlamydomonas reinhardtii, Harris 1989); “resistance” (23S position 2058 A to G, Solanum nigrum, Kavanagh 1994); “resistance” (23S position 2058 A to G, Tobacco chloroplasts, Cseplö 1988); “resistance” (23S position 2059 A to G, Tobacco chloroplasts, Cseplö 1988); “resistance” (23S rRNA 2032 G to A, Tobbaco chloroplasts).

Take `CSC[S@+]([O-])C[C@H](CO)NC(=O)/C=C/c1c(C)[nH]c(=O)[nH]c1=O` [Sparsomycin]: the Phenotype result (23S rRNA position 2499 "C to U", Halobacterium halobium) is “resistance”.

As for `CC[C@H]1OC(=O)[C@H](C)[C@@H](O[C@H]2C[C@@](C)(OC)[C@@H](O)[C@H](C)O2)[C@H](C)[C@@H](O[C@@H]2O[C@H](C)C[C@H](N(C)C)[C@H]2O)[C@](C)(O)C[C@@H](C)C(=O)[C@H](C)[C@@H](O)[C@]1(C)O` [erythromycin], the “Phenotype: growth rate” value (23S rRNA 1056 G to A, E. coli, with 2058G and erythromycin) is on record as “erythromycin) Reduced”; the “Phenotype: growth rate” value (23S rRNA 1064 C to U, E. coli, with 2058G and erythromycin) was “erythromycin) Reduced”; the “Phenotype: growth rate” value (23S rRNA 1262 A to C, double mutant (A1262C/U2017G), E. coli, with erythromycin) was “With erythromycin; reduced”; the “Phenotype: growth rate” value (23S rRNA 1262 A to U, double mutant (A1262U/U2017G), E. coli, with erythromycin) is “With erythromycin; reduced”; the “Phenotype: growth rate” value (23S rRNA 1262 A to U, E. coli, with erythromycin) was “With erythromycin; reduced”; the “Phenotype: growth rate” value (23S rRNA 2017 U to A, E. coli) is on record as “Reduced growth”. Further, the “Phenotype: growth rate” value runs as follows: (23S rRNA 2017 U to C, double mutation (U2017C/A1262G), E. coli) “Reduced growth”; (23S rRNA 2017 U to C, E. coli) “Reduced growth”; (23S rRNA 2017 U to G, double mutation (U2017G/A1262C), E. coli) “Reduced growth”; (23S rRNA 2017 U to G, double mutation (U2017G/A1262U), E. coli) “Reduced growth”. Moreover, the Phenotype (23S rRNA 1068 G to A, E. coli, with 2058G, expressed from rrnB or pL promotor in presence of erythromycin) is reported as 2058G) Lethal when; the Phenotype entry (23S rRNA 1137 G to A, double mutant (G1137A/G1138C), E. coli, with 2058G and erythromycin, rrnB promoter) is on record as “lethal when expressed from rrnB”; the Phenotype result (23S rRNA 1137 G to A, E. coli, with 2058G and erythromycin, expressed from rrnB promoter) is recorded as “lethal when expressed from rrnB”; the Phenotype result (23S rRNA 1138 G to C, double mutant (G1138C/G1137A), E. coli, with 2058G and erythromycin, rrnB promoter) was “lethal when expressed from rrnB”; the Phenotype result (23S rRNA 1138 G to C, E. coli, with 2058G and erythromycin, rrnB promoter) is given as “lethal when expressed from rrnB”; the Phenotype result (23S rRNA 1262 A to C, E. coli, with erythromycin) is on record as “With erythromycin; lethal”. The Phenotype entry (23S rRNA 1262 A to G, E. coli, with erythromycin) is given as “With erythromycin; lethal”.
